This is an account of results in patent US11590154B2, “Triple antibiotic fixed-dose combination products, dosing regimen, methods, and kits for treating pulmonary non-tuberculosis mycobacterial infections” (priority 2020, dated 2023).

Data set [1] can be described thus: 7-day mouse tolerability and PK study. As to conditions: for Cavg (rifabutin): AUCtlast/24 h; for Tmax / AUC(0-t) / Cmax: female, C57BL/6, mouse, in vivo, po; for AUC(0-t): AUCtlast (rifabutin); for AUC(0-t) / Cmax: mouse plasma; for Cmax: Cmax (rifabutin). The protocol:
Sixty (60) female mice were tested, 12 per treatment groups: […]

The test system of another data set is M. avium 104 biofilm. Briefly: In vitro biofilm model of infection. Format: cell-based, Mycobacterium avium subsp. hominissuis. The note with it: mean ± SD; CLR 1.9-4.3 μg/mL, RFB 0.04 μg/mL, CFZ 0.0005 μg/mL.
For data set [2], the system named is intracellular MAC in THP-1 monocytes. In words: Hollow fiber system model of MAC (HFS-MAC): microbial kill. Format: cell-based, Mycobacterium avium complex. The note with it: HF experiments.
Method: The anti-mycobacterial effects of CLR, CFZ, and RFB was evaluated in the hollow fiber system model of MAC (HFS-MAC), which recapitulates the intrapulmonary concentrations of these antibiotics. The HFS-MAC allows for an assessment of the contribution of individual drug components in terms of anti-mycobacterial effects and enables exploration of potential synergy, additivity, or antagonism of different doses of drugs and combination regimens on the log-phase growth of intracellular MAC, for both microbial kill and resistance suppression.
A two-part investigation was conducted to assess the contribution of components of various FDC products comprising CLR, CFZ, and RFB in terms of depth and rate of MAC kill and suppression of the emergence of resistance. The anti-MAC activity of each antibiotic component was evaluated as one-drug alone; as two-drug combinations and the three-drug combination. For each combination (singlet, doublet or triplet), the drug concentrations were sampled from the HF fluid bathing MAC-infected cells. […] Anti-MAC activity was evaluated by kill slopes defined as the kill rate constant (and the half-life of kill [reciprocal of the kill rate constant]) as well as the maximum kill, defined as the maximum reduction in MAC CFUs and compared between the different antibiotic combinations.
MAC was grown into log-phase for 4 days, parallel with cultivation of THP-1 monocytes. The THP-1 cells were then infected with MAC overnight at a multiplicity of infection of 1:1. The THP-1 cells were washed to remove extracellular bacteria, and 20 mL of 1×10^6 (6.0 log10) cells/mL were inoculated into each HFS-MAC on Study Day 0. The peripheral compartment is the abluminal hollow fibers space that is also enclosed by the plastic, while the intraluminal space and flow path form the central compartment. […]
Another data set relates to MAC bacteria. Format: cell-based, Mycobacterium avium complex. The note with it: 2×MIC; starting inoculum 5.5 log10 CFU/ml. The protocol:
In vitro, efficacy was studied in static time-kill kinetics assays (at 2×minimum inhibitory concentration [MIC]), intended to mirror a desired peak serum concentration for all three antibiotics using an established assay. All experiments were performed with a starting inoculum of 5.5 log10 CFU/ml MAC bacteria, higher than the bacterial load expected in the airway secretions of patients with mild nodular-bronchiectatic disease due to MAC.

A further data set relates to M. avium. Briefly: MIC of antibiotics by broth microdilution, M. avium strains of Examples 3 and 4. Type of data set: cell-based, Mycobacterium avium subsp. hominissuis. The note with it: 7H10 agar plates for tissue CFU counts. Here is the method: Susceptibility testing was conducted using broth microdilution single and twofold dilutions as described in the literature. Suspensions were prepared by swabs on a growth plate with a sterile cotton swab, or were prepared in broth culture. The growth was transferred to a 4.5 mL of phosphate buffer solution (PBS) until the turbidity matched the density of a 0.5 McFarland standard. Suspensions were then vigorously mixed on a vortex mixer for 15 to 20 seconds. The final inoculum was prepared to a bacterial density of 10^5. The tube was inverted 8-10 times to mix the suspension.
Following both the four-week and eight-week treatment period, mice were sacrificed, and lungs and spleens were harvested for CFU counts in each tissue and compared to CFUs recovered in the baseline and vehicle-treated groups. Tissue samples were plated with and without antibiotic on 7H10 agar. Antibiotic plates were made with minimum inhibitory concentrations (MICs) of 8 μg/ml for clarithromycin, and 0.25, μg/ml for both rifabutin (RFB) and clofazimine (CFZ). Plates were made for each of clarithromycin (CLR) alone, clarithromycin plus either rifabutin (CLR+RFB) or clofazimine (CLR+CFZ) and the three-drug combination (CLR+RFB+CFZ). All plates were incubated in a microbiological incubator at 37° C. for 14 days.

The next data set deals with NTM. As to conditions: mouse models of systemic and lung infection; preclinical literature; cited from earlier work.
Data set [3] concerns MAC. In words: Lung histopathology of mice infected with MAC and treated for four and eight weeks. Format: in vivo, Mycobacterium avium complex. The note with it: 32 sections per group. The text has this: Lung and Spleen Histopathology of Mice Infected with MAC and Treated with FDC Components Alone and in Combination for Four and Eight Weeks of Treatment
Each of the experimental group had eight cut examined from each lung (8×2 lungs=16×2 mice=32 sections). Lungs were normal and not showing any pathology at pre-infection.

The test system of data set [4] is MAC. In words: MIC of the MAC strains used in the HFS-MAC studies. Format: cell-based, Mycobacterium avium complex. As to conditions: Mycobacterium avium. The protocol:
The MAC strain used in the HFS-MAC studies was ATCC strain 700898. The study center also had 5 well-characterized clinical strains that have undergone whole-genome sequencing and habituation to the HFS-MAC. Stock cultures of MAC were stored at −80° C. in Middlebrook 7H9 broth with 10% OADC and 10% glycerol. THP-1 monocytes were stored in liquid nitrogen and have been habituated for the HFS-MAC growth conditions.

The conditions of data set [5]: epithelial lining fluid to total plasma/serum; cited from earlier work.
The mark [6] stands for this setting: 20 mg/kg, Day 1, RFB 20 mg/kg alone, oral.
Where [7] appears, read: 20 mg/kg, Day 7, RFB 20 mg/kg alone, oral once daily.
Where [8] appears, read: 60 mg/kg, Day 1, RFB 60 mg/kg alone, oral.
[9] abbreviates: 60 mg/kg, Day 1, RFB 60 mg/kg with CLR 200 mg/kg and CFZ 30 mg/kg, oral.
The mark [10] stands for this setting: 60 mg/kg, Day 7, RFB 60 mg/kg alone, oral once daily.
[11] abbreviates: 60 mg/kg, Day 7, RFB 60 mg/kg with CLR 200 mg/kg and CFZ 30 mg/kg, oral once daily.

Entries after “also recorded” stand apart in the source; their conditions may differ.

One may read the Tmax as the time at which the peak concentration occurs. In general, AUC(0-t) refers to exposure summed from dosing to a finite time, without extrapolation to infinity. By Cmax is commonly meant the highest concentration seen after dosing. In general, MIC refers to the lowest concentration found to suppress growth. In the case of `CO[C@H]1/C=C/O[C@@]2(C)Oc3c(C)c(O)c4c(c3C2=O)C2=NC3(CCN(CC(C)C)CC3)NC2=C(NC(=O)/C(C)=C\C=C\[C@H](C)[C@H](O)[C@@H](C)[C@@H](O)[C@@H](C)[C@H](OC(C)=O)[C@@H]1C)C4=O` [Rifabutin, rifabutin], the “Cavg (rifabutin)” value in data set [1] (Day 7, RFB 20 mg/kg alone) was 1,117 ng/mL; in data set [1] (Day 7, RFB 60 mg/kg alone), 2,558 ng/mL; in data set [1] (Day 7, RFB 60 mg/kg with CLR 200 mg/kg and CFZ 30 mg/kg) it was 4,541 ng/mL. Moreover, the Tmax in [1] (20 mg/kg) and in [1] (60 mg/kg) was 1 h each time. For the same molecule, the AUC(0-t) in [1] (setting [6]) is 22.1 µg·h/mL; in data set [1] (setting [7]) it was 26.8 µg·h/mL; in data set [1] (setting [8]), 60.2 µg·h/mL; in data set [1] (setting [9]) it was 60.4 µg·h/mL; in data set [1] (setting [10]), 61.4 µg·h/mL; in data set [1] (setting [11]) it was 109 µg·h/mL. For the same molecule, the Cmax was found to be 2.31 µg/mL in data set [1] (setting [6]); 3.14 µg/mL in data set [1] (setting [7]); 5.65 µg/mL in [1] (setting [8]); 5.3 µg/mL in data set [1] (setting [9]); 5.76 µg/mL in data set [1] (setting [10]); 5.72 µg/mL in data set [1] (setting [11]). In addition, the “Colony Forming Unit Concentration, Four Days” value with M. avium 104 biofilm is recorded as 1.41 ± 0.5 × 10^7 CFU/mL. In the data set with M. avium 104 biofilm, the “Colony Forming Unit Concentration, Seven Days” value is on record as 1.64 ± 0.3 × 10^7 CFU/mL. Moreover, the “effect on CFUs / MAC killing, summary” value in data set [2] is reported as “CFU counts increased”. The “activity as single drugs” value in the data set with MAC bacteria was “bacteriostatic activity”. Besides, the “minimum inhibitory concentrations (MICs) used for antibiotic plates” value in the data set on M. avium was found to be 0.25 mg/L. Moreover, the “Effective Dose” value with NTM is recorded as 10 mg/kg/day. For the same molecule, in the data set on MAC [3], the “Lung Histopathology Findings” value is “Diffuse congestion; also recorded: Infiltrates of lymphocytes are also observed in multiple locations”. For the same molecule, the MIC with MAC [4] (ATCC700898, MAC (ATCC 700898), laboratory strain) was determined as 0.0625 mg/L; in the data set with MAC [4] (Clinical strain #1), 0.125 mg/L; with MAC [4] (Clinical strain #2), 0.125 mg/L; in the data set with MAC [4] (Clinical strain #3) it was 0.125 mg/L; in the data set with MAC [4] (Clinical strain #4), 2 mg/L; in the data set on MAC [4] (Clinical strain #5), 0.125 mg/L.

`CO[C@H]1/C=C/O[C@@]2(C)Oc3c(C)c(O)c4c(O)c(c(/C=N/N5CCN(C)CC5)c(O)c4c3C2=O)NC(=O)/C(C)=C\C=C\[C@H](C)[C@H](O)[C@@H](C)[C@@H](O)[C@@H](C)[C@H](OC(C)=O)[C@@H]1C` [rifampin]: the “ELF:plasma ratio” value in [5] is given as “approximately 0.34”.
